Laboratory results published in patent US11559544B2, “Combination of a MAPK/ERK pathway inhibitor and a glycosaminoglycan for the treatment of cancer” (CELL RECEPTOR AG, priority 2017, dated 2023).

Legend:
[1] = tested on: melanoma cell line A375 resistant to dabrafenib; experiment: Growth of dabrafenib-resistant cancerous cells co-incubated daily with platelets (Example 6); type: cell-based, human; settings: serum-free, platelets 30 minutes each day; for fate of cell population incubated with Raf inhibitor and PPS or DXS: in the presence of dabrafenib
Procedure: (§1) Three populations of cells are cultivated in the presence of the inhibitor under serum-free conditions.
(§2) For a first population of the cells PPS is added to the cell culture dishes, while for a second population, i.e. the control cells, no PPS is added.
(§3) For a third population of the cells DXS is added to the cell culture dishes.
(§4) Each day all cell populations are co-incubated with platelets for 30 minutes, which are subsequently washed away.
The sixth experiment is performed as described for Example 1 except that cells that have developed a resistance against the Raf inhibitor dabrafenib are used and cultivated in the presence of the Raf inhibitor dabrafenib.
As described in Caparorali et al. 2011 in detail cancerous cells that have developed a resistance against the Raf inhibitor dabrafenib are generated by growing the human melanoma cell line A375 in gradually increasing concentrations of dabrafenib (from 1 nM up to 1.5 μM) over a period of 4 months and subsequently maintaining the dabrafenib-resistance cell lines in CM supplemented with 1.5 μM dabrafenib.
For each of the cancerous cells lines that have developed a resistance against the Raf inhibitor dabrafenib the cultivation steps as in Example 1 are performed, except that the cells are cultivated in the presence of the Raf inhibitor dabrafenib.

[2] = tested on: Hepatocellular carcinoma (HCC) Huh7 cells resistant to sorafenib; experiment: Growth of sorafenib-resistant cancerous cells co-incubated daily with platelets (Example 5); type: cell-based, human; settings: serum-free, platelets 30 minutes each day; for fate of cell population incubated with Raf inhibitor and PPS or DXS: in the presence of sorafenib
Procedure: as §1, §2, §3, §4
The fifth experiment is performed as described for Example 1 except that cells that have developed a resistance against the Raf inhibitor sorafenib are used and cultivated in the presence of the Raf inhibitor sorafenib.
As described in Chen et al. 2011 in detail cancerous cells that have developed a resistance against the Raf inhibitor sorafenib are generated by growing the human Hepatocellular carcinoma (HCC) Huh7 in a long term exposure to sorafenib.
For each of the cancerous cells lines that have developed a resistance against the Raf inhibitor sorafenib the cultivation steps as in Example 1 are performed, except that the cells are cultivated in the presence of the Raf inhibitor sorafenib.

[3] = tested on: colorectal cancer cell lines COL0205 and HCT116 resistant to PD184352; experiment: Growth of CI-1040 (PD184352)-resistant cancerous cells co-incubated daily with platelets (Example 2); type: cell-based; settings: serum-free, platelets 30 minutes each day; for fate of cell population incubated with MEK inhibitor and PPS or DXS: in the presence of CI-1040 (PD184352)
Procedure: as §1, §2, §3, §4
The second experiment is performed as described for Example 1 except that cells are cultivated in the presence of the MEK inhibitor CI-1040 (PD184352).
As described in Little et al. 2011 in detail cancerous cells that have developed a resistance against the MEK inhibitor PD184352 are generated by growing colorectal cancer cell lines harboring mutations in BRAF (COL0205) or KRAS (HCT116) in the presence of increasing concentrations of […] without clonal selection until they grow apparently normally in 1 μm, 2 μM or […].
For each of the cancerous cells lines that have developed a resistance against the MEK inhibitor CI-1040 (PD184352) the cultivation steps as in Example 1 are performed, except that the cells are cultivated in the presence of the MEK inhibitor CI-1040 (PD184352).

[4] = tested on: melanoma cell line SK-MEL-28 (BRAF V600E) resistant to vemurafenib; experiment: Growth of vemurafenib-resistant cancerous cells co-incubated daily with platelets (Example 4); type: cell-based; settings: in the presence of vemurafenib, serum-free, platelets 30 minutes each day
Procedure: as §1, §2, §3, §4

[5] = tested on: colorectal cancer cell lines COL0205, HT29, HCT116 and LoVo resistant to Selumetinib; experiment: Growth of Selumetinib-resistant cancerous cells co-incubated daily with platelets (Example 1); type: cell-based; settings: in the presence of Selumetinib, serum-free, platelets 30 minutes each day
Procedure: The experiment is performed on cancerous cells that have developed a resistance against the MEK inhibitor Selumetinib. As described in Little et al. 2011 in detail cancerous cells that have developed a resistance against the MEK inhibitor Selumetinib are generated by growing colorectal cancer cell lines harboring mutations in BRAF (COL0205 and HT29 lines) or KRAS (HCT116 and LoVo lines) in the presence of increasing concentrations of AZD6244 (Selumetinib) without clonal selection until they grow apparently normally in 1 μm, 2 μM or 4 μM of the drug.
For each of the cancerous cells lines that have developed a resistance against the MEK inhibitor Selumetinib the following steps are performed:
as §1, §2, §3, §4
Control cells in the growth cycle express platelet receptors on their surface. Platelets adhere to the control cells and release growth factors from their alpha granules. The control cells will take up the factors and proceed through the cell cycle, even in the presence of the MEK inhibitor.

[6] = tested on: cancerous cells resistant against an RTK inhibitor; experiment: Growth of RTK inhibitor-resistant cancerous cells co-incubated daily with platelets (Example 7); type: cell-based; settings: in the presence of the RTK inhibitor, serum-free, platelets 30 minutes each day
Procedure: as §1, §2, §3, §4
The seventh experiment is performed as described for Example 1, except that the cancerous cells are resistant against an RTK inhibitor and the three populations of cells are cultivated in the presence of the RTK inhibitor.

[7] = tested on: NRAS mutant melanoma cell lines DO4 and MM415 resistant to trametinib; experiment: Growth of trametinib-resistant cancerous cells co-incubated daily with platelets (Example 3); type: cell-based, Human; settings: in the presence of trametinib, serum-free, platelets 30 minutes each day
Procedure: as §1, §2, §3, §4
The third experiment is performed as described for Example 1 except that cells that have developed a resistance against the MEK inhibitor trametinib (GSK1120212) are used and cultivated in the presence of the MEK inhibitor trametinib.
As described in Vujic et al. 2014 in detail cancerous cells that have developed a resistance against the MEK inhibitor trametinib are generated by growing Human NRAS mutant melanoma cell lines DO4 and MM415 in the presence of increased concentrations of trametinib (GSK1120212) over a period of approximately 6 months.
For each of the cancerous cell lines that have developed a resistance against the MEK inhibitor trametinib the cultivation steps as in Example 1 are performed, except that the cells are cultivated in the presence of the MEK inhibitor trametinib.

[8] = fraction of Heparin's activity; cited from earlier work

Molecule | fate of cell population incubated with Raf inhibitor and PPS or DXS [4] | fate of cell population incubated with MEK inhibitor and PPS or DXS [3] | fate of cell population incubated with Raf inhibitor and PPS or DXS [1] | adherence of platelets to the cancerous cells [5] | fate of cell population incubated with MEK inhibitor and PPS or DXS [5] | fate of cell population incubated with RTK inhibitor and PPS or DXS [6] | fate of cell population incubated with MEK inhibitor and PPS or DXS [7] | fate of cell population incubated with Raf inhibitor and PPS or DXS [2] | other results
CC(C)(C)c1nc(-c2cccc(NS(=O)(=O)c3c(F)cccc3F)c2F)c(-c2ccnc(N)n2)s1 [dabrafenib] | – | – | – | – | – | – | – | – | growth of control cells with Raf inhibitor alone (no PPS/DXS) ([1]; dabrafenib alone): continue to grow and divide
CNC(=O)c1cc(Oc2ccc(NC(=O)Nc3ccc(Cl)c(C(F)(F)F)c3)cc2)ccn1 [sorafenib] | – | – | – | – | – | – | – | – | growth of control cells with Raf inhibitor alone (no PPS/DXS) ([2]; sorafenib alone): continue to grow and divide
O=C(NOCC1CC1)c1ccc(F)c(F)c1Nc1ccc(I)cc1Cl [CI-1040] | – | – | – | – | – | – | – | – | growth of control cells with MEK inhibitor alone (no PPS/DXS) ([3]; CI-1040 (PD184352) alone): continue to grow and divide
Dextran sulfate [DXS] | perish | perish | perish | prevents the platelet from adhering to the cancerous cells | perish | perish | perish | perish | –
Pentosan polysulfate [PPS] | perish | perish | perish | prevents the platelet from adhering to the cancerous cells | perish | perish | perish | perish | anticoagulant activity relative to that of Heparin [8]: 1/15
